In patent US5232917A, “Methods, compositions, and compounds for allosteric modulation of the GABA receptor by members of the androstane and pregnane series” (priority 1991, dated 1993):
Where two headings read alike, the source gives them in different places.

Assays:
[1] = tested on: strychnine-induced convulsions; conditions: 1982, cited from earlier work
[2] = 1982, cited from earlier work
[3] = tested on: metrazol-induced convulsions; set-up: key: NP: no protection; conditions: 1982, cited from earlier work
[4] = tested on: picrotoxin-induced convulsions; set-up: key: NP: no protection; conditions: 1982, cited from earlier work
[5] = tested on: maximal electroshock seizure; conditions: 1982, cited from earlier work
[6] = tested on: (+)bicuculline-induced seizures; set-up: key: NP: no protection; conditions: 1982, cited from earlier work
[7] = tested on: metrazol induced convulsions; experiment: Inhibition of metrazol induced convulsions (Table 2); format: in vivo, mice; conditions: Mus musculus
Protocol: Experiments were also performed to determine the physiological relevance of these interactions by measuring the ability of the compound of and used in the invention to modulate TBPS-induced convulsions in Swiss-Webster mice. […] The time to onset of myoclonus (presence of forelimb clonic activity) induced by TBPS was determined by observing each mouse for a period of 45 minutes. Significant differences between the time to onset in control mice vs. steroid-treated mice were determined by Student's t-test. […] The number of animals with tonic and/or clonic convulsions was recorded. In the maximal electroshock test, 50 mA of current at 60 Hz was delivered through corneal electrodes for 200 msec to induce tonic seizure. […] The ED50 (the dose at which the half-maximal effect occurs) was determined for each screen.
Adult male CFI mice (20-30g) were used in these studies. […] Percent protection against metrazol-induced seizures was plotted against time after administration of the compound. […] Ten to twelve mice were used per dose of test drug. […] The number of animals with tonic and/or clonic convulsions was recorded. The ability of the steroid to abolish the tonic component was defined as the endpoint. Sedative potential was determined by a rotorod test where the number of mice staying on a rotating (6 rpm) rod for ≥1 min. in each of three trials was determined.

estrogen receptor = biological target: T1, estrogen receptor (Bos taurus, UniProt P49884); experiment: Inhibition of 3H-estradiol binding to bovine uteral estrogen receptors; conditions: read-out: % of inhibition of 3H-estradiol binding, B, competitor 10^-6 M; 0.25 nM 3H-estradiol
T1 construct: from tissue; host or cells: bovine uterus cytosol
T1 sequence (P49884 1-596): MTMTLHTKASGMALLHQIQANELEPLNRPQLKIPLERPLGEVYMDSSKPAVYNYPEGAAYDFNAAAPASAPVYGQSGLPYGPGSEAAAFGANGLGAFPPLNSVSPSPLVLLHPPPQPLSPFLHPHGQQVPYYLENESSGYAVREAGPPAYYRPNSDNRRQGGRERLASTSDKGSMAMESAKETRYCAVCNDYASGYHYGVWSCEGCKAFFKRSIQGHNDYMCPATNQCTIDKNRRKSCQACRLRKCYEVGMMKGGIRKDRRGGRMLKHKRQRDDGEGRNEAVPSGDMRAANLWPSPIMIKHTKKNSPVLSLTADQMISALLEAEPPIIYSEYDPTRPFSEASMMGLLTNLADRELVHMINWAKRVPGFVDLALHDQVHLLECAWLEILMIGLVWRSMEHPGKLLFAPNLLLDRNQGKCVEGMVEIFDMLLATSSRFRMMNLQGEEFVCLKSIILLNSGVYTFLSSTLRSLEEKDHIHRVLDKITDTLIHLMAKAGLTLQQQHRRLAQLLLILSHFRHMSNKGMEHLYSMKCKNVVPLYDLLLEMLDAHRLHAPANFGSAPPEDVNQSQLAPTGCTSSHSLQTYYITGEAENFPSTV
Protocol: (§1) The hormonal activity of drugs described herein was further studied through testing their potential estrogenic, progestinic, mineralocorticoid and glucocorticoid activities. These activities were analyzed by monitoring the ability of the drugs to inhibit binding of the steroid hormones to their respective hormone receptors.

[8] = biological target: GABA receptor-chloride ionophore complex (GR complex); experiment: [35S]TBPS binding modulation assay; conditions: for Max. Inhib., maximal % of specifically bound [35S]-TBPS displaced: saturating concentrations of test compound
progesterone receptor = biological target: T2, progesterone receptor (Bos taurus, UniProt F1N712); experiment: Inhibition of 3H-progesterone binding to bovine uteral progesterone receptors
T2 construct: from tissue; host or cells: bovine uterus cytosol
T2 sequence (F1N712 1-914): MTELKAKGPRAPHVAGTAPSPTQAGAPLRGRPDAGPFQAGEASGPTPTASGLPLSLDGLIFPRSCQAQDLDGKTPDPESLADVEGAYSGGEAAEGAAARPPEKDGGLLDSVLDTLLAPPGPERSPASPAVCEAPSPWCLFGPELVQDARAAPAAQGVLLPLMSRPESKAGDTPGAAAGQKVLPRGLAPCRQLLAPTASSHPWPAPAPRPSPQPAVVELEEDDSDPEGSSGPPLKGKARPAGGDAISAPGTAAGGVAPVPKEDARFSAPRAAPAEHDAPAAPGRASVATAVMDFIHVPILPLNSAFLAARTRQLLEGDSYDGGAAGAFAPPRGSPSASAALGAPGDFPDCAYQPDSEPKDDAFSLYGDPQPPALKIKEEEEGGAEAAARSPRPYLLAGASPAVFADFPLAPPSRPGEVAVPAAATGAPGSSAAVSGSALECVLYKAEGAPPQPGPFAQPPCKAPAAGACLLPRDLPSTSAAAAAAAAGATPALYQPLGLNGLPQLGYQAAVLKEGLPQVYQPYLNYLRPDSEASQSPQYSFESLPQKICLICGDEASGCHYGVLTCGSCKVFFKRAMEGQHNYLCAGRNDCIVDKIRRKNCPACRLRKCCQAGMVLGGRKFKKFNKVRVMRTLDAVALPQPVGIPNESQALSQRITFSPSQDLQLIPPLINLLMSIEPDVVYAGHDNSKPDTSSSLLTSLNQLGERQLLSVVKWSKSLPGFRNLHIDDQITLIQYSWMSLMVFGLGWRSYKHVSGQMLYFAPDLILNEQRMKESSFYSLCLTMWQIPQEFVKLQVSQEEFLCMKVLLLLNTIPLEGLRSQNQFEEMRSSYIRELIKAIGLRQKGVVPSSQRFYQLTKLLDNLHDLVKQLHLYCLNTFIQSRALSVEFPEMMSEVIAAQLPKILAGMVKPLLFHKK
Protocol: as §1
For the data presented in Table 9, bovine uteri cytosol was isolated as they were for Table 7 and used for following binding to progesterone receptors by following the inhibition of ^3 H-progesterone, the natural ligand.

[9] = tested on: GABA receptor complex (36Cl uptake, cerebral cortical synaptoneurosomes); experiment: GABA-stimulated 36Cl uptake in rat cerebral cortical synaptoneurosomes; format: biochemical, rat (male Sprague-Dawley)
Protocol: In addition, the ability of the BZ clonazepam to modulate ^36 Cl uptake in the presence or absence of 5α-pregnandiol was evaluated.
The homogenate was diluted to a final volume of 40 mL with buffer and filtered through three layers of Nylon mesh (160 μm).
Aliquots of membrane preparation (200 μL) were preincubated at 30° C. for 10 min. The interaction was initiated by the simultaneous addition of drugs/steroids and 0.2 mL ^36 Cl (New England Nuclear Boston, Mass., 0.55 mCi/mmol, 0.8 μCi/ml) resulting in a total incubation volume of 0.4 mL. Steroids and test drugs were solubilized in dimethylsufoxide (DMSO) and added to the reaction mixture in 2 μL aliquots. An equal volume of vehicle was always included in the control reaction mixture. The mixture was gently mixed and ^36 Cl uptake terminated after 5 sec by the of 5 mL of ice cold buffer containing 100 μM picrotoxin (Sigma Chem Co.) followed immediately by rapid filtration through glass fiber filters (Whatman GF/C) under vacuum. The filters were washed twice with 5 mL of ice-cold buffer and the filter-bound radioactivity quantitated by liquid scintillation spectrophotometry. Specific uptake was calculated by subtracting the amount of ^36 Cl bound to the filters in the absence of synaptoneurosomes from that observed in their presence. Percent enhancement represents percent increase in uptake over that of basal ^36 Cl uptake. Statistical comparisons utilized the analysis of variance (ANOVA).

[10] = tested on: number of light/dark transitions (anxiety); conditions: Blumstein and Crawley, 1983; Crawley et al.; cited from earlier work
[11] = tested on: GABA receptor-chloride ionophore complex (GR complex); experiment: Dissociation kinetics of [35S]TBPS in rat cerebral cortical membranes; format: binding; conditions: alphaxalone 300 nM, 3α-OH-DHP 20 nM
[12] = read-out: IC50, inhibition of [35S]-TBPS binding, +5 μM GABA, in the presence of 5 μM GABA
[13] = read-out: % of inhibition of 3H-progesterone binding, A, competitor 10^-5 M, 0.15 nM 3H-progesterone
[14] = read-out: % of inhibition of 3H-progesterone binding, B, competitor 10^-5 M, 0.25 nM 3H-progesterone
[15] = read-out: % of inhibition of 3H-progesterone binding, B, competitor 10^-6 M, 0.25 nM 3H-progesterone
[16] = Na pentobarbital 30 μM, 2 nM [35S]TBPS

Compound: NC(=O)CCC/N=C(\c1ccc(Cl)cc1)c1cc(F)ccc1O [Progabide]
- ED50 STR (strychnine) ([1]; convulsant i.v., Worms et al.): 75 mg/kg
- LD50 ([2]; Worms et al.): 3000 mg/kg
- ED50 MTZ (metrazol) ([3]; convulsant i.v., Worms et al.): 30 mg/kg
- ED50 PICRO (picrotoxin) ([4]; convulsant i.v., Worms et al.): 105 mg/kg
- ED50 MES (maximal electroshock) ([5]; Worms et al.): 75 mg/kg
- ED50 BIC (bicuculline) ([6]; convulsant i.v., Worms et al.): 30 mg/kg

Compound: C[C@]12CC[C@@H](O)C[C@H]1CC[C@@H]1[C@@H]2CC[C@]2(C)[C@@H](C(=O)CO)CC[C@@H]12 [5β-PREGNAN-3α,21-DIOL-20-ONE]
- ED50 ([7]; inhibition of metrazol induced convulsions, read-out: Anti-Metrazol ED50): 10 mg/kg
- inhibition at 1 µM (estrogen receptor): 4%
- IC50 [8, 12]: 100 nM
- Max. Inhib., maximal % of specifically bound [35S]-TBPS displaced [8]: 100%
- inhibition at 10 µM (progesterone receptor; [13]): 19%
- inhibition at 1 µM (progesterone receptor; read-out: % of inhibition of 3H-progesterone binding, A, competitor 10^-6 M, 0.15 nM 3H-progesterone): 6%
- inhibition at 10 µM (progesterone receptor; [14]): 10%
- inhibition at 1 µM (progesterone receptor; [15]): 2%

Compound: CCCC(CCC)C(=O)O [Valproate]
- ED50 STR (strychnine) ([1]; Swinyard & Woodhead): 293 mg/kg
- LD50 ([2]; Swinyard & Woodhead): 1105 mg/kg
- ED50 MTZ (metrazol) ([3]; Swinyard & Woodhead): 149 mg/kg
- ED50 PICRO (picrotoxin) ([4]; Swinyard & Woodhead): 387 mg/kg
- ED50 MES (maximal electroshock) ([5]; Swinyard & Woodhead): 272 mg/kg
- ED50 BIC (bicuculline) ([6]; Swinyard & Woodhead): 360 mg/kg

Compound: O=C1NC(=O)C(c2ccccc2)(c2ccccc2)N1 [Phenytoin]
- Maximum protection, STR (strychnine) ([1]; at 55-100 mg/kg, Swinyard & Woodhead): 50%
- LD50 ([2]; Swinyard & Woodhead): 230 mg/kg
- ED50 MTZ (metrazol) ([3]; Swinyard & Woodhead): NP
- ED50 PICRO (picrotoxin) ([4]; Swinyard & Woodhead): NP
- ED50 BIC (bicuculline) ([6]; Swinyard & Woodhead): NP

Compound: CC(C)(O)[C@H]1CC[C@H]2[C@@H]3CC[C@H]4C[C@H](O)CC[C@]4(C)[C@H]3CC[C@]12C [3α,20-dihydroxy-20-methyl-5α-pregnane]
- inhibition at 1 µM (estrogen receptor): 0%
- IC50 [8, 12]: 65 nM
- Max. Inhib., maximal % of specifically bound [35S]-TBPS displaced [8]: 45%

Compound: C[C@H](O)[C@H]1CC[C@H]2[C@@H]3CC[C@H]4C[C@H](O)CC[C@]4(C)[C@H]3CC[C@]12C [5α-pregnanediol, 5α-pregnan-3α,20α-diol]
- ED50 ([7]; iv, read-out: Anti-Metrazol ED50 (iv)): 40 mg/kg
- % enhancement of basal 36Cl uptake ([9]; 5α-pregnanediol (3 μM), no GABA): 2 ± 1%
- maximal enhancement of GABA-stimulated 36Cl uptake above GABA alone ([9]; 5α-pregnanediol at 3 μM, GABA 25 μM, FIG. 4): approximately 30%
- concentration at which potentiation of GABA-stimulated 36Cl uptake reaches a plateau ([9]; FIG. 4): 3 µM
- % enhancement of basal 36Cl uptake ([9]; GABA (25 μM) + 5α-pregnanediol (3 μM)): 162±4%
- % enhancement of basal 36Cl uptake ([9]; GABA (25 μM) + 5α-pregnanediol (3 μM) + clonazepam (1 μM)): 192 ± 16%
- 3α-OH-DHP potentiation of GABA-stimulated 36Cl uptake as antagonized by 5α-pregnanediol ([9]; from 60% to this value above GABA (25 μM) alone, 3α-OH-DHP 500 nM + 5α-pregnanediol): 31%
- effect on basal 36Cl uptake ([9]; steroid alone, no GABA): no effect
- inhibition at 1 µM (estrogen receptor): 0%
- IC50 [8, 12]: 82 nM
- IC50 ([8]; read-out: IC50, inhibition of [35S]-TBPS binding, No GABA, washed synaptoneurosomes, no GABA added): 359 nM
- Max. Inhib., maximal % of specifically bound [35S]-TBPS displaced [8]: 52%
- inhibition at 10 µM (progesterone receptor; [13]): 2%
- inhibition at 10 µM (progesterone receptor; [14]): 3%
- inhibition at 1 µM (progesterone receptor; [15]): 1%

Compound: CCC1(c2ccccc2)C(=O)NC(=O)NC1=O [Phenobarbital]
- ED50 STR (strychnine) ([1]; Swinyard & Woodhead): 95 mg/kg
- LD50 ([2]; Swinyard & Woodhead): 265 mg/kg
- ED50 MTZ (metrazol) ([3]; Swinyard & Woodhead): 13 mg/kg
- ED50 PICRO (picrotoxin) ([4]; Swinyard & Woodhead): 28 mg/kg
- ED50 MES (maximal electroshock) ([5]; Swinyard & Woodhead): 22 mg/kg
- ED50 BIC (bicuculline) ([6]; Swinyard & Woodhead): 38 mg/kg

Compound: CCCC(C)C1(CC)C(=O)NC(=O)NC1=O (stereo not drawn) [pentobarbital]
- effect on number of light/dark transitions (literature) [10]: increase the number of transitions
- Total percentage of specific sites, rapid (R) ([11]; Na pentobarbital 30 μM): 48 ± 6%
- Total percentage of specific sites, slow (S) ([11]; Na pentobarbital 30 μM): 61 ± 6%
- K-1, rapidly dissociating component (R) [11, 16]: 0.158 ± 0.013 min⁻¹
- K-1, slowly dissociating component (S) [11, 16]: 0.0186 ± 0.0015 min⁻¹
- T1/2, rapidly dissociating component (R) [11, 16]: 4.4 ± 0.3 min
- T1/2, slowly dissociating component (S) [11, 16]: 38 ± 3 min
- biphasic dissociation mechanism of [35S]TBPS ([11]; pentobarbital 30 μM, FIGS. 2A, 2B): induces a biphasic dissociation mechanism
